Experimental findings from patent US20240156791A1, “METHODS OF TREATING SPINAL CORD INJURY OR DAMAGE” (Spinogenix, Inc., priority 2021, published 2024) are described below.

For this test, the system named is rat C2 hemisection (C2HS) model of spinal cord injury. Put plainly: rat C2 hemisection (C2HS) model of spinal cord injury, recovery monitored by diaphragm EMG. The test is classed as in vivo. Here is the method: A representative compound of this disclosure, Compound 1, was used in treating spinal cord injury in rats. The rat C2 hemisection (C2HS) model of spinal cord injury was used in this experiment. The spinal cord injury was modeled in rats by hemi-section at the level of C2 followed by monitoring of lesion and recovery was conducted by one of the following methods: diaphragm EMG, transdiaphragmatic pressure, and ventilatory behaviors.
Seven rats were treated with Compound 1 (30 mg/kg) and 8 rats were treated with a vehicle (0.5% DMSO in phosphate buffered saline) for 14 days and their recovery was monitored. […] Also, the magnitude of recovery was an average 54% among recovered compound-treated rats as compared to vehicle-treated rats.
Similar experiment was carried out separately using 4 rats and it provided similar results as those described above.

[1] abbreviates: separate similar experiment using 4 rats.

For `OCCOCCOCCOCCOc1ccc(-c2nc3ccccc3s2)cc1` [Compound 1], the “recovery compared with brain derived neurotrophic factor approaches” value (30 mg/kg for 14 days) is on record as “greater than that seen for brain derived neurothrophic factor approaches”. Moreover, the “rats recovered as judged by diaphragm EMG” value (30 mg/kg for 14 days, seven rats, by day 14 post lesion) is given as 86%. Where the note is “30 mg/kg for 14 days, diaphragm EMG”, the “magnitude of recovery (average) among recovered compound-treated rats as compared to vehicle-treated rats” value was 54%. Under “rats treated with compound vs vehicle (0.5% DMSO in PBS)”, the “recovery from spinal cord injury as judged by diaphragm EMG (FIG. 1A)” value is listed as “enhancement of recovery”. Moreover, under setting [1], the “% recovery as compared to vehicle-treated rats” value was “greater % recovery” and the “magnitude of recovery as compared to vehicle-treated rats” value is recorded as “greater magnitude of recovery”.
